Data set [1] in a line: Induction of AFT3 gene expression in mouse 3T3-L1 cells assessed as relative gene expression level at 50 uM incubated for 8 days by real time-PCR analysis (reference value: 1.00). It counts as functional. As to conditions: time 8 day.
The species entered for data set [2] is Mus musculus. The experiment in a line: Inhibition of high fat diet induced metabolic disturbance in C57BL/6 mouse model assessed as reduction in hypertrophic iWAT adipocytes by H and E staining based analysis. The class given is functional, cell-based.
Data set [3] in a line: Inhibition of high fat diet induced metabolic disturbance in C57BL/6 mouse model assessed as reduction in body weight at 40 mg/kg, ip administered 3 times weekly for 10 weeks (reference value: 34.86 +/-[…]). The class given is functional.
Data set [4] can be described thus: (§1) Cytotoxicity against mouse 3T3-L1 adipocytes assessed as reduction in cell viability. It counts as toxicity, cell-based. The settings on record: 3T3-L1 adipocytes.
Data set [5] deals with Mus musculus. The experiment in a line: Inhibition of high fat diet induced metabolic disturbance in C57BL/6 mouse model assessed as reduction in epididymal white adipose tissue weight at 40 mg/kg, ip. The class given is functional, organism-based.
Data set [6] concerns Mus musculus. In words: Protection against hyperlipidemia in high fat diet-fed C57BL/6 mouse model assessed as reduction in hypo-triglyceridemic level at 40 mg/kg administered thrice weekly. The class given is functional, organism-based.
The test system of data set [7] is Mus musculus. The experiment in a line: Inhibition of high fat diet induced metabolic disturbance in C57BL/6 mouse model assessed as reduction in […] adipose tissue weight at 40 mg/kg, ip. It counts as functional, organism-based.
Data set [8] deals with 3T3-L1. In words: Induction of AFT3 expression in mouse 3T3-L1 cells at 50 to 100 uM incubated for 6 days by Western blot analysis. The settings on record: dose 50-100 µM, time 6.0 day. The class given is functional, cell-based. On the technique in general: In western blotting, separated proteins are transferred to a membrane and probed.
Data set [9] has as its system Mus musculus. In words: Inhibition of high fat diet induced metabolic disturbance in C57BL/6 mouse model assessed as reduction in inguinal white adipose tissue weight at 40 mg/kg, ip. The class given is functional, organism-based.
Data set [10] concerns Mus musculus. The experiment in a line: Hepatoprotective activity in high fat diet induced C57BL/6 mouse assessed as reduction in GOT level at 40 mg/kg administered thrice weekly. It counts as functional, organism-based.
The test system of data set [11] is Mus musculus. The experiment in a line: Inhibition of high fat diet induced metabolic disturbance in C57BL/6 mouse model assessed as reduction in size of epididymal white adipose tissue at 40 mg/kg, ip. It counts as functional, organism-based.
The species entered for data set [12] is Mus musculus. In words: Anti-hyperglycemic activity in 16 hrs overnight fasted high fat diet induced C57BL/6 mouse assessed as reduction in insulin resistance measured at upto 120 mins. It counts as functional, organism-based.
The species named for data set [13] is Mus musculus. In words: Inhibition of high fat diet induced metabolic disturbance in C57BL/6 mouse model assessed as reduction in hypertrophic eWAT adipocytes by H and E staining based analysis. The class given is functional, cell-based.
The species entered for data set [14] is Mus musculus. The experiment in a line: Anti-hyperglycemic activity in 16 hrs overnight fasted high fat diet induced C57BL/6 mouse assessed as reduction in glucose intolerance measured at upto 120 mins. The class given is functional, organism-based.
For data set [15], the system named is Mus musculus. In words: Protection against hyperlipidemia in high fat diet-fed C57BL/6 mouse model assessed as reduction in total plasma cholesterol level at 40 mg/kg administered thrice weekly. It counts as functional, organism-based.
Data set [16] has as its system Mus musculus. In words: Reduction in hepatic steatosis in high fat diet induced metabolic disturbance in C57BL/6 mouse model at 40 mg/kg, ip by hematoxylin and eosin staining based assay. It counts as functional, organism-based.
Data set [17] concerns Mus musculus. The experiment in a line: Hepatoprotective activity in high fat diet induced C57BL/6 mouse assessed as reduction in GPT level at 40 mg/kg administered thrice weekly. It counts as functional, organism-based.
Data set [18] concerns 3T3-L1. In words: Downregulation of lipid accumulation in mouse 3T3-L1 pre-adipocyte model at 50 to 100 uM incubated for […] by Oil Red O staining based analysis. The settings on record: dose 50-100 µM. The class given is functional, cell-based.
The subject of data set [19] is 3T3-L1. Described as §1. It counts as toxicity, cell-based. The settings on record: 3t3-l1.

From ChEMBL document CHEMBL5352449, “Exploration and biological evaluation of 7-methoxy-3-methyl-1H-chromeno[4,3-c]pyrazol-4-one as an activating transcription factor 3 inducer for managing metabolic syndrome” (Eur J Med Chem, 2023) come the findings set out here.

The source made the active and inactive calls. No cut-off for these calls is given here.

As for `O=c1oc2cc(O)ccc2c2occ(C(F)(F)F)c12`, the Activity in data set [1] was 1.4.

Consider `COc1ccc2c(c1)oc(=O)c1c(C)n[nH]c12`, for which the inhibition entry in data set [2], in data set [5], in data set [7], in data set [9], in data set [11] and in data set [13] was “Active” each time. Further, the figures for the Activity in [3] and in [1] were 30 g and 4.29, respectively. Moreover, the CC50 in data set [4] was > 100 µM. Also, the result in [6], in data set [8], in data set [12], in data set [14], in data set [15] and in data set [16] was Active. The outcome in data set [17] was Active. The result in data set [10] was inactive.

For the compound `O=C(O)c1coc2c1c(=O)oc1c3ccccc3ccc21`, the Activity in [1] was determined as 1.06.

As to `Cc1[nH]nc(-c2ccc3ccccc3c2O)c1C(=O)O`, the Activity in data set [1] was determined as 1.2.

Regarding `O=c1oc2cc(OCc3ccncc3)ccc2c2occ(C(F)(F)F)c12`, the Activity in data set [1] is on record as 1.23.

In the case of `Cn1ncc2c3ccc4ccccc4c3oc(=O)c21`, the Activity in data set [1] turned out to be 1.44.

Take `COc1ccc2c(c1)oc(=O)c1c(C(F)(F)F)coc12`: in data set [1], the Activity came to 2.8.

On to `O=c1oc2c(ccc3ccccc32)c2c1C(O)(C(F)(F)F)CO2` (centres undefined), for which the Activity in data set [1] came to 2.19.

For the compound `COc1ccc2c(c1)oc(=O)c1c(C3CC3)coc12`, the Activity in data set [1] came to 1.96.

For the compound `OCc1c(C(F)(F)F)coc1-c1ccc2ccccc2c1O`, the Activity in data set [1] amounted to 1.41.

For `Cc1n[nH]c2c1c(=O)oc1cc(Br)ccc12`, the Activity in data set [1] came out at 2.12.

As to `COc1cccc2c1oc(=O)c1c(C(F)(F)F)n[nH]c12`, the Activity in [1] worked out at 1.81.

For the compound `O=c1oc2c3ccccc3ccc2c2occ(C3CC3)c12`, the Activity in data set [1] is listed as 2.92.

Turning to `COc1ccc2c(c1)oc(=O)c1c(C)onc12`, the Activity in [1] was found to be 1.62.

For `COc1cccc2oc(=O)c3c(C)n[nH]c3c12`, the Activity in data set [1] came to 0.98.

As for `COc1cccc2c1oc(=O)c1c(C)n[nH]c12`, the result in [18] and in [8] was Active. Moreover, the cytotoxic concentration (CC50) in [4] was > 100 µM. Further, the Activity in [1] amounted to 4.78.

As for `O=c1oc2c3ccccc3ccc2c2occ(CO)c12`, the Activity in [1] amounted to 1.39.

With `CC1(C)Oc2c(c(=O)oc3c2ccc2ccccc23)C1(C)C`, the Activity in data set [1] is listed as 3.22.

As to `Cc1coc2c1c(=O)oc1cc(Br)ccc12`, the Activity in [1] came out at 1.28.

Regarding `Cc1n[nH]c2c1c(=O)oc1cc(F)ccc12`, in data set [1], the Activity was 1.46.

`Cc1ccc2c(c1)oc(=O)c1c(C)n[nH]c12`: the Activity in data set [1] stood at 1.38.

With `O=c1oc2c3ccccc3ccc2c2[nH]nc(C(F)(F)F)c12`, in [1], the Activity is reported as 1.62.

As to `O=c1oc2cc(Br)ccc2c2[nH]nc(C(F)(F)F)c12`, the results for the Activity entry in [19] and in data set [1] were “Toxic” and 7.31, respectively.

Regarding `COc1ccc2c(c1)oc(=O)c1c(C(F)(F)F)n[nH]c12`, in data set [1], the Activity is on record as 1.55.

`O=c1oc2cc(Br)ccc2c2c1C(O)(C(F)(F)F)CO2` (centres undefined): the Activity in [1] amounted to 1.08.

As for `Cc1n[nH]c2c1c(=O)oc1c3ccccc3ccc21`, the Activity in [1] is recorded as 1.84.

Turning to `C[C@@H]1c2c(c3ccc4ccccc4c3oc2=O)O[C@@H]1C`, the inhibition result in data set [2], in [5], in [7], in data set [9], in data set [11] and in data set [13] was “Active” throughout. The Activity worked out at 30.5 g in data set [3] and 2.1 in data set [1]. The outcome in data set [10] and in data set [17] was inactive. Besides, the outcome in data set [12], in [14] and in [15] was Active.

Consider `O=c1oc2cc(O)ccc2c2c1C(O)(C(F)(F)F)CO2` (centres undefined), for which the Activity in [1] is listed as 0.99.

Consider `O=c1oc2c3ccccc3ccc2c2occ(C(F)(F)F)c12`, for which the Activity in data set [1] worked out at 1.44.

Consider `COc1ccc(-c2n[nH]c(C)c2C(=O)O)c(O)c1`, for which the Activity in data set [1] was 1.07.

As for `COc1ccc2c3c(c(=O)oc2c1)C(O)(C(F)(F)F)CO3` (centres undefined), in [1], the Activity is recorded as 1.39.

As to `Cc1coc2c1c(=O)oc1c3ccccc3ccc21`, the Activity in [1] amounted to 1.94.

Broadly, the CC50 is the concentration that lowers cell viability or growth by half.
